Data published in article PMC5517430, “2,3,7,8-Tetrachlorodibenzo-p-dioxin (TCDD)-elicited effects on bile acid homeostasis: Alterations in biosynthesis, enterohepatic circulation, and microbial metabolism” (Scientific Reports, 2017).

Test system: hepatic gene expression
Assay: Hepatic RNA-Seq differential gene expression (fold change, P1(t), ED50, BMD, BMDL)
Type: in vivo, mouse
Protocol: Frozen ileal epithelium scrapings and liver samples were homogenized in TRIzol (Ambion, Waltham, MA) using a Mixer Mill 300 tissue homogenizer (Retsch, Germany) and total RNA was isolated as previously described. RNA was quantified using a Nano-drop spectrophotometer (Thermo Scientific, Wilmington, DE) at 260 nm, and purity was assessed using the A260/A280 ratio and the Caliper LabChip GX (Perkin Elmer, Waltham, MA).
Dose-dependent gene expression was examined using RNA-Seq performed at the MSU Research Technology Support Facility (RTSF) Genomics Core (rtsf.natsci.msu.edu/genomics). Ileal libraries from three independent biological replicates (n = 3) were prepared using the Ovation Mouse RNA-Seq System 1–16 sample preparation kit (NuGen, San Carlos, CA), with an additional DNase step. Libraries were quantified and sequenced as previously described, using a read depth of ~30 M per sample[33], [67]. Quality was determined using FASTQC v0.11.3 and adaptor sequences were removed using Trimmomatic v0.33. Reads were mapped to the mouse reference genome (GRCm38 release 81) using Bowtie2 v2.2.6 and TopHat2 v2.1.0. Alignments were converted to SAM format using SAMTools v1.2.0. For TCDD-mediated differential gene expression, fold changes were calculated relative to vehicle controls. Hepatic RNA-Seq analysis was previously published. Genes were considered differentially expressed if |fold change| ≥ 1.5 and statistical P1(t) value ≥ 0.8 at one or more doses. RNA-Seq datasets for the ileal epithelium and liver were deposited in the Gene Expression Omnibus (GEO; accession number GSE89430 and GSE87519, respectively). The RNA-Seq results (fold changes, P1(t) values) for each gene discussed in the manuscript have been compiled in Supplementary Table S1. […] Estimation of benchmark dose (BMD) and BMD lower confidence limit (BMDL) was performed using BMDExpress[69] as previously described, and has been included in Supplementary Table S1.

[1] = liver, 0.3 µg/kg TCDD, relative to vehicle control
[2] = liver, 1 µg/kg TCDD, relative to vehicle control
[3] = liver, 3 µg/kg TCDD, relative to vehicle control
[4] = liver, 10 µg/kg TCDD, relative to vehicle control
[5] = liver, 30 µg/kg TCDD, relative to vehicle control
[6] = male mice, 30 µg/kg TCDD every 4 d for 28 d
[7] = male mice, TCDD every 4 d for 28 d

SMILES: Clc1cc2c(cc1Cl)Oc1cc(Cl)c(Cl)cc1O2 [TCDD, 2,3,7,8-tetrachlorodibenzo-p-dioxin]
- Slco1b2 (OATP1B2) FC_0.3 [1]: 1.08
- Slco2b1 (OATP2B1) FC_0.3 [1]: 0.92
- Soat1 FC_0.3 [1]: 0.85
- Soat2 FC_0.3 [1]: 1.22
- Sqle FC_0.3 [1]: 2.08
- Srebf2 FC_0.3 [1]: 1.06
- Sult2a8 FC_0.3 [1]: 0.81
- Tm7sf2 FC_0.3 [1]: 1.05
- Slc6a6 (TAUT) FC_1 [2]: 1.28
- Slc10a1 (NTCP or LBAT) FC_1 [2]: 1.21
- Slc27a5 FC_1 [2]: 0.86
- Slco1a1 (OATP1A1) FC_1 [2]: 1.33
- Slco1a4 (OATP1A4) FC_1 [2]: 0.45
- Slco1b2 (OATP1B2) FC_1 [2]: 1.13
- Slco2b1 (OATP2B1) FC_1 [2]: 1.01
- Soat1 FC_1 [2]: 0.53
- Soat2 FC_1 [2]: 1.23
- Sqle FC_1 [2]: 1.92
- Srebf2 FC_1 [2]: 0.99
- Sult2a8 FC_1 [2]: 0.89
- Tm7sf2 FC_1 [2]: 0.89
- Slc6a6 (TAUT) FC_3 [3]: 1.14
- Slc10a1 (NTCP or LBAT) FC_3 [3]: 1.09
- Slc27a5 FC_3 [3]: 0.81
- Slco1a1 (OATP1A1) FC_3 [3]: 1.24
- Slco1a4 (OATP1A4) FC_3 [3]: 0.40
- Slco1b2 (OATP1B2) FC_3 [3]: 0.92
- Slco2b1 (OATP2B1) FC_3 [3]: 0.90
- Soat1 FC_3 [3]: 0.77
- Soat2 FC_3 [3]: 1.08
- Sqle FC_3 [3]: 1.74
- Srebf2 FC_3 [3]: 0.93
- Sult2a8 FC_3 [3]: 0.65
- Tm7sf2 FC_3 [3]: 1.24
- Slc6a6 (TAUT) FC_10 [4]: 1.16
- Slc10a1 (NTCP or LBAT) FC_10 [4]: 0.56
- Slc27a5 FC_10 [4]: 0.48
- Slco1a1 (OATP1A1) FC_10 [4]: 0.0276
- Slco1a4 (OATP1A4) FC_10 [4]: 0.46
- Slco1b2 (OATP1B2) FC_10 [4]: 0.65
- Slco2b1 (OATP2B1) FC_10 [4]: 0.40
- Soat1 FC_10 [4]: 1.16
- Soat2 FC_10 [4]: 0.80
- Sqle FC_10 [4]: 2.07
- Srebf2 FC_10 [4]: 0.85
- Sult2a8 FC_10 [4]: 0.12
- Tm7sf2 FC_10 [4]: 0.97
- Slc6a6 (TAUT) FC_30 [5]: 1.84
- Slc10a1 (NTCP or LBAT) FC_30 [5]: 0.056
- Slc27a5 FC_30 [5]: 0.06
- Slco1a1 (OATP1A1) FC_30 [5]: 0.000843
- Slco1a4 (OATP1A4) FC_30 [5]: 0.40
- Slco1b2 (OATP1B2) FC_30 [5]: 0.13
- Slco2b1 (OATP2B1) FC_30 [5]: 0.08
- Soat1 FC_30 [5]: 3.59
- Soat2 FC_30 [5]: 0.51
- Sqle FC_30 [5]: 0.23
- Srebf2 FC_30 [5]: 0.37
- Sult2a8 FC_30 [5]: 0.00374
- Tm7sf2 FC_30 [5]: 0.0549
- Fgfr4 hepatic expression, fold repression [6]: 4.7 fold
- Hmgcr hepatic expression [6]: no significant induction
- Klb hepatic expression, fold repression [6]: 8.1 fold
- Srebf2 hepatic expression, fold repression [6]: 2.7 fold
- Hmgcr hepatic expression, max fold induction (male mice, 0.3–10 µg/kg TCDD every 4 d for 28 d): 3.4 fold
- Abcb11 hepatic expression, fold repression [7]: 4.7 fold
- Abcc2 hepatic expression [7]: unchanged
- Akr1c6 hepatic expression, fold repression [7]: 22.1 fold
- Akr1d1 hepatic expression, fold repression [7]: 16.3 fold
- Amacr hepatic expression, fold repression [7]: 3.3 fold
- Baat hepatic expression, fold repression [7]: 12.0 fold
- Cdo1 hepatic expression, fold repression [7]: 2.7 fold
- Ch25h hepatic expression, fold induction [7]: 6.1 fold
- Csad hepatic expression, fold repression [7]: 4.5 fold
- Cyp3a11 hepatic expression, fold repression [7]: 4.9 fold
- Cyp3a13 hepatic expression, fold repression [7]: 17.0 fold
- Cyp3a16 hepatic expression, fold repression [7]: 5.2 fold
- Cyp3a25 hepatic expression, fold repression [7]: 6.0 fold
- Cyp3a44 hepatic expression, fold repression [7]: 3.0 fold
- Cyp3a57 hepatic expression, fold repression [7]: 2.4 fold
- Cyp3a59 hepatic expression, fold repression [7]: 4.4 fold
- Cyp7a1 hepatic expression, fold repression [7]: 39.7 fold
- Cyp7b1 hepatic expression, fold repression [7]: 7.6 fold
- Cyp8b1 hepatic expression, fold repression [7]: 4.4 fold
- Cyp27a1 hepatic expression, fold repression [7]: 2.4 fold
- Cyp46a1 hepatic expression, fold repression [7]: 2.1 fold
- Hsd3b7 hepatic expression, fold repression [7]: 2.5 fold
- Nr0b2 hepatic expression, fold repression [7]: 22.2 fold
- Nr1h4 hepatic expression, fold repression [7]: 3.2 fold
- Scp2 hepatic expression, fold repression [7]: 3.4 fold
- Slc10a1 hepatic expression, fold repression [7]: 17.9 fold
- Slc27a5 hepatic expression, fold repression [7]: 16.0 fold
- Slco1a1 hepatic expression, fold repression [7]: 1186.3 fold
- Slco1a4 hepatic expression, fold repression [7]: 2.5 fold
- Slco1b2 hepatic expression, fold repression [7]: 7.9 fold
- Slco2b1 hepatic expression, fold repression [7]: 12.9 fold
- Sult2a8 hepatic expression, fold repression [7]: 267.5 fold
